The source made the active and inactive calls. No cut-off for these calls is given here.
Key:
[1] = test system: PBMC; experiment: Induction of transcriptional signature of inflammatory gene expression in human PBMC cells after 2 hrs; format: cell-based
[2] = species on record: Oryctolagus cuniculus; experiment: Adjuvantic activity in New Zealand White rabbit immunized with bovine alpha-lactalbumin on day 1, 15, and 28 assessed as anti-alpha-lactalbumin IgG level in serum at 100 ug measured on day 38 by ELISA; format: functional, organism-based
[3] = test system: PBMC; experiment: Up-regulation of CXCL gene in human PBMC cells after 2 hrs; format: cell-based
[4] = test system: PBMC; experiment: Induction of proinflammatory cytokine release in human PBMC after 12 hrs; format: cell-based
[5] = biological target: T1, Toll-like receptor 8 (Homo sapiens) (UniProt Q9NR97); experiment: (§1) Agonist activity at human TLR8 expressed in HEK293 cells assessed as induction of NF-kappaB activity by measuring extracellular secreted alkaline phosphatase by HEK-blue reporter gene assay; format: functional, cell-based
T1 sequence (whole entry): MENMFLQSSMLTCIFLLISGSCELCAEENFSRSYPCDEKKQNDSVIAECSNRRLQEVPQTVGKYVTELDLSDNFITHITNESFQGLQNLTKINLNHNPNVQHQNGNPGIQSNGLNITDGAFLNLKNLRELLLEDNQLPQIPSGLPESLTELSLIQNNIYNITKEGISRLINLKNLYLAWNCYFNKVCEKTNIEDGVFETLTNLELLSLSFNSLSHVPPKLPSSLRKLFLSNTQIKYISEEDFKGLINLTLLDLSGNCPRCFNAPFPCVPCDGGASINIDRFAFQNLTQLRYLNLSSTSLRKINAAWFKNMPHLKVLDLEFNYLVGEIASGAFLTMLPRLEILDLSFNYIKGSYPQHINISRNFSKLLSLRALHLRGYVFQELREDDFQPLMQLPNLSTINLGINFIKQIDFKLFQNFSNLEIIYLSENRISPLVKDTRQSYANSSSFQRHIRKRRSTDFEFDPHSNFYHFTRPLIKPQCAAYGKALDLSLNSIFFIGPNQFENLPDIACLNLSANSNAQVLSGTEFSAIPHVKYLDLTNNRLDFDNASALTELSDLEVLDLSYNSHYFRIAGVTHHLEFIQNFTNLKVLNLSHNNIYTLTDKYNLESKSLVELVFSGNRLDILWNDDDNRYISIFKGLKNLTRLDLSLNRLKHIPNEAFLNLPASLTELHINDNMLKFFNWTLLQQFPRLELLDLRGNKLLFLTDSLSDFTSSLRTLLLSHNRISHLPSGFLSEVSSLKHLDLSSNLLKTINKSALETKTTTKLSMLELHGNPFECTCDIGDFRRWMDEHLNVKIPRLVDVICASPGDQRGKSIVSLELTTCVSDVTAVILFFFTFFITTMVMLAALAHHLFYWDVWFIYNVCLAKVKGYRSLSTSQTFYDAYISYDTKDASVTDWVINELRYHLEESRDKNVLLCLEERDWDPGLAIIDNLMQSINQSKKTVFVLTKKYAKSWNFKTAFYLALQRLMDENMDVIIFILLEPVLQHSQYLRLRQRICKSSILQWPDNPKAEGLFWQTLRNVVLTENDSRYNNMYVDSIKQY

[6] = biological target: T2, Toll-like receptor 8 (Homo sapiens, UniProt Q9NR97); experiment: as §1; format: functional, cell-based; conditions: read-out: EC50
T2 sequence (Q9NR97 whole entry): T1 sequence (whole entry)

[7] = test system: PBMC; experiment: Up-regulation of CCL gene in human PBMC cells after 2 hrs; format: cell-based
[8] = biological target: T3, Toll-like receptor 9 (Homo sapiens) (UniProt Q9NR96); experiment: Agonist activity at human TLR9 expressed in HEK293 cells assessed as induction of NF-kappaB activity by measuring extracellular secreted alkaline phosphatase up to 250 uM by HEK-blue reporter gene assay; format: functional, cell-based
T3 sequence (whole entry): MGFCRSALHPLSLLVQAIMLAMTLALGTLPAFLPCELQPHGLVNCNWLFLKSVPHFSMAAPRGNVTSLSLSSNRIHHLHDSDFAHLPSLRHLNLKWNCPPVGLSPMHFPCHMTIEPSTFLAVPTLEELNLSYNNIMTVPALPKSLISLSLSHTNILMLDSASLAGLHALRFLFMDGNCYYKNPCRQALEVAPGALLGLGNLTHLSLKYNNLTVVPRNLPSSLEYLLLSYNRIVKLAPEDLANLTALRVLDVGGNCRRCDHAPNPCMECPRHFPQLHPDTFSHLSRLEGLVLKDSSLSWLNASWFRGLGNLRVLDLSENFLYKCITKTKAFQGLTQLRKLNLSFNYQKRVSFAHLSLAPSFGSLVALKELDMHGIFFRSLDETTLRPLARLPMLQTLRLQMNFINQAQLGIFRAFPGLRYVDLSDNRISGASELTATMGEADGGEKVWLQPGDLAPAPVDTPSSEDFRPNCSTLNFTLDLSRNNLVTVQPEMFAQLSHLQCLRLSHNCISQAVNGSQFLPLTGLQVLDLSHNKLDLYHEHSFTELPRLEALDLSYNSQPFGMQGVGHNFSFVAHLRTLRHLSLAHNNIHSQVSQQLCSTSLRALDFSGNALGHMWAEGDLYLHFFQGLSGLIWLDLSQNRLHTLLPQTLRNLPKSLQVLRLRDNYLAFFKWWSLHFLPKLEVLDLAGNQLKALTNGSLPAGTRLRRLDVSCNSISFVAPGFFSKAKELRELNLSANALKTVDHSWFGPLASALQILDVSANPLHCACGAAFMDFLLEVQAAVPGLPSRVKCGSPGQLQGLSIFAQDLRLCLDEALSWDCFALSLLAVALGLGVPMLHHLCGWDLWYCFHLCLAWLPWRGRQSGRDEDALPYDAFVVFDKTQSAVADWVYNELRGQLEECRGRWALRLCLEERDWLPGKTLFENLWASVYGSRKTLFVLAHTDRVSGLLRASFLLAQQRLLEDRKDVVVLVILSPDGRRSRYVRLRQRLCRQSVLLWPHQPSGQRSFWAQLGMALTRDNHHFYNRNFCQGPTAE

[9] = biological target: T1, Toll-like receptor 8 (Homo sapiens); experiment: Agonist activity at human TLR8 expressed in HEK293 cells assessed as induction of NF-kappaB activity by measuring extracellular secreted alkaline phosphatase up to 250 uM by HEK-blue reporter gene assay; format: functional, cell-based
[10] = biological target: T4, Toll-like receptor 7 (Homo sapiens) (UniProt Q9NYK1); experiment: Agonist activity at human TLR7 expressed in HEK293 cells assessed as induction of NF-kappaB activity by measuring extracellular secreted alkaline phosphatase up to 250 uM by HEK-blue reporter gene assay; format: functional, cell-based
T4 sequence (whole entry): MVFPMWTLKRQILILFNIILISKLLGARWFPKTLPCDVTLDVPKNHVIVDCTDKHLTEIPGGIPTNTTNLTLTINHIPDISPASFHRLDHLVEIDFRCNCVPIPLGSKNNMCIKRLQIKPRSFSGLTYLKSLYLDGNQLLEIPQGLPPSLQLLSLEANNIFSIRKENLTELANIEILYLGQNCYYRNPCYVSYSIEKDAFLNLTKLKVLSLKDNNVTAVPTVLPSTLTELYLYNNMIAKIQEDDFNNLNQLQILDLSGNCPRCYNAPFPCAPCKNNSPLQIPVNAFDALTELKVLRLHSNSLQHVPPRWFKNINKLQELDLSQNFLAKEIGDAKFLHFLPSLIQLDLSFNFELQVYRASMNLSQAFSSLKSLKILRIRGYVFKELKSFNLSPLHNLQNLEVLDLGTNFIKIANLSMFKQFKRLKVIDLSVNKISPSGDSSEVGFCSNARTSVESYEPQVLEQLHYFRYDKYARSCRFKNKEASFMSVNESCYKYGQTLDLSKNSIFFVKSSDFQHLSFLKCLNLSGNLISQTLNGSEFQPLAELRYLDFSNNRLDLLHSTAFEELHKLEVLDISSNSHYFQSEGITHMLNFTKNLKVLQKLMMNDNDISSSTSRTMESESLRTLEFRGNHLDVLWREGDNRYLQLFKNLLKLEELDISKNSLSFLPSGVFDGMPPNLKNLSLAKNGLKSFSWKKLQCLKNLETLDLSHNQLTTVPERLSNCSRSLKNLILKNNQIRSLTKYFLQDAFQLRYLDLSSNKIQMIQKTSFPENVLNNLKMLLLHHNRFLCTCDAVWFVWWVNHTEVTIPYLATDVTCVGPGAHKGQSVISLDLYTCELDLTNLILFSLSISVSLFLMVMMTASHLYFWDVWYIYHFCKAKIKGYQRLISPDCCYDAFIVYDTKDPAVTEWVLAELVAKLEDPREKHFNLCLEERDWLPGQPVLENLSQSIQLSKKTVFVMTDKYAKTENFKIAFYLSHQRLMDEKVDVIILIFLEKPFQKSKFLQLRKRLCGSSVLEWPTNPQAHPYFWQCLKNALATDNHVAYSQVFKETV

[11] = biological target: Toll-like receptor 5 (Homo sapiens) (UniProt O60602); experiment: Agonist activity at human TLR5 expressed in HEK293 cells assessed as induction of NF-kappaB activity by measuring extracellular secreted alkaline phosphatase up to 250 uM by HEK-blue reporter gene assay; format: functional, cell-based
Chain of Toll-like receptor 5 (Homo sapiens) (O60602 whole entry): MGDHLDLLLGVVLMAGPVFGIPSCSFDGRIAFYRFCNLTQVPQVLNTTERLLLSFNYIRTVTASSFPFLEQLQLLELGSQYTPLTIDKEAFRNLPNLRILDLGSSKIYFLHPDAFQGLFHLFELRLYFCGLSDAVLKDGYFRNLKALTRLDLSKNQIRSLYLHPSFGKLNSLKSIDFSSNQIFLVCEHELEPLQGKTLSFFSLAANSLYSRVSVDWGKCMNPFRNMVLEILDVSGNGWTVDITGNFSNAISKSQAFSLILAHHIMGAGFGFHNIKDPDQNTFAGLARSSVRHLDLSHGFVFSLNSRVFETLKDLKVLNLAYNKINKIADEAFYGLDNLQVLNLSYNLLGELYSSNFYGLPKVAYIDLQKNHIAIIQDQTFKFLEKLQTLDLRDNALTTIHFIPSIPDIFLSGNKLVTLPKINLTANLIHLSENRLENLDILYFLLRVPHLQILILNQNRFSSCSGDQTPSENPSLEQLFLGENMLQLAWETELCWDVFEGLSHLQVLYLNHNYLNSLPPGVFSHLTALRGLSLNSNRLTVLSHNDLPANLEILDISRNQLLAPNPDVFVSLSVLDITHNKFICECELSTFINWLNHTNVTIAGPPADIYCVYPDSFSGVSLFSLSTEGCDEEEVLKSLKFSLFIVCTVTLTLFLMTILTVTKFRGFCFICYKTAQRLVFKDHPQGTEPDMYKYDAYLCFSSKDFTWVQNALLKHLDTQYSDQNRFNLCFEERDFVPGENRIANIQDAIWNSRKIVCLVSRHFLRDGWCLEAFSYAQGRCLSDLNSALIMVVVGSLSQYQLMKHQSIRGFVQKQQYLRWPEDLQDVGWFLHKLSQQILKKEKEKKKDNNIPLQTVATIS

[12] = biological target: Toll-like receptor 4 (Homo sapiens) (UniProt O00206); experiment: Agonist activity at human TLR4 expressed in HEK293 cells assessed as induction of NF-kappaB activity by measuring extracellular secreted alkaline phosphatase up to 250 uM by HEK-blue reporter gene assay; format: functional, cell-based
Chain of Toll-like receptor 4 (Homo sapiens) (O00206 whole entry): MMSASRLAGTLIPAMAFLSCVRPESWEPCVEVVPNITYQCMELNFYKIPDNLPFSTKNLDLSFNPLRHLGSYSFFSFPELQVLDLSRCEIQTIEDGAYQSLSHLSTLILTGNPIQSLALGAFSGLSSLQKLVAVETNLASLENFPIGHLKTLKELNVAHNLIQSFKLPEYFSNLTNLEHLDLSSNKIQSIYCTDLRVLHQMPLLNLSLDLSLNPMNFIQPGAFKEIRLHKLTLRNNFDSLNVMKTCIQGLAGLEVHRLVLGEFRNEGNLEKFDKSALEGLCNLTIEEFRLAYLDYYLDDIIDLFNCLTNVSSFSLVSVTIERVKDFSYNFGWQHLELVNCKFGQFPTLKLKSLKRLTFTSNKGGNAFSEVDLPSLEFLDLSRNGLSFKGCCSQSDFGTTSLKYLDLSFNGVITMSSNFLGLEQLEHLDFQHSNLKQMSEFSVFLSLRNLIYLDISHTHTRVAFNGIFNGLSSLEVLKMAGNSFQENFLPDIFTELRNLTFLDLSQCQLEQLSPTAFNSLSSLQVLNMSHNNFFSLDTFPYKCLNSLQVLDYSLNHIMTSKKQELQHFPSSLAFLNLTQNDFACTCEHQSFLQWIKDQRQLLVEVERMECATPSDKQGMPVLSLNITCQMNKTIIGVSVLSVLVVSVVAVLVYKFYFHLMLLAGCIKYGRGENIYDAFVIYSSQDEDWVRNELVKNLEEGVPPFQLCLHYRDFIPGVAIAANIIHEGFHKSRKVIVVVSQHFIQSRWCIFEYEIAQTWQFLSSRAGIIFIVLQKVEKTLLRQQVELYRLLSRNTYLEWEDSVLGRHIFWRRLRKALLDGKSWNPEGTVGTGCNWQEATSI

[13] = biological target: Toll-like receptor 3 (Homo sapiens) (UniProt O15455); experiment: Agonist activity at human TLR3 expressed in HEK293 cells assessed as induction of NF-kappaB activity by measuring extracellular secreted alkaline phosphatase up to 250 uM by HEK-blue reporter gene assay; format: functional, cell-based
Chain of Toll-like receptor 3 (Homo sapiens) (O15455 whole entry): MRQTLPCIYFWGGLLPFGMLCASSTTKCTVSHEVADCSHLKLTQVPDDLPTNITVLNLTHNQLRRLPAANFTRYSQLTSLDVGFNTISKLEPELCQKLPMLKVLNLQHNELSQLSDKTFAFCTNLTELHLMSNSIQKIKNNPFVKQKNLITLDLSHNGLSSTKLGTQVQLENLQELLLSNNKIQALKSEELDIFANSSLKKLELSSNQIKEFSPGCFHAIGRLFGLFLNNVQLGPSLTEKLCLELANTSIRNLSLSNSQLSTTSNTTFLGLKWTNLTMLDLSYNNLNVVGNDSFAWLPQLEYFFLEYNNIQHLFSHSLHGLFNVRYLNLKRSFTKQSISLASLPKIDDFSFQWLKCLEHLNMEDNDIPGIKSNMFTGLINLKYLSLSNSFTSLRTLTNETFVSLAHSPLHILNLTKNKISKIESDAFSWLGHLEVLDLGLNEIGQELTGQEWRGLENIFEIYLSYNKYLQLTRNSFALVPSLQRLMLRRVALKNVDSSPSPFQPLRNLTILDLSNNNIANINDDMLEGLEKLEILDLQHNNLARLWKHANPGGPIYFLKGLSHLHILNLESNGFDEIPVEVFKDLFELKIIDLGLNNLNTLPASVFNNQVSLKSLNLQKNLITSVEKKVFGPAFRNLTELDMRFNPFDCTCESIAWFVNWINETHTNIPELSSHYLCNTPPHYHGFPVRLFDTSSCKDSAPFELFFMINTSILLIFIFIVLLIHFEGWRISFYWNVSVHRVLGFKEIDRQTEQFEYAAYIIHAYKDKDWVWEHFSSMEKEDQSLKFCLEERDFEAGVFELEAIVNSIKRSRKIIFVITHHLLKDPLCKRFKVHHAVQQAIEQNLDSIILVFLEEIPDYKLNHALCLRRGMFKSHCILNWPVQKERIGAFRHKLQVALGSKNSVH

SMILES | Activity [1] | Activity [2] | Activity [3] | Activity [4] | Activity [5] | EC50 [6] [µM] | Activity [7] | Activity [8] | Activity [9] | Activity [10] | Activity [11] | Activity [12] | Activity [13]
CCCCCNc1oc2c(C)ncc(CO)c2c1Nc1ccccn1 | Non-toxic | Active | Toxic | Non-toxic | Dose-dependent effect | 5.81 | Toxic | – | – | – | – | – | –
Cc1ncc(CO)c2c(Nc3ccccn3)c(NC[Si](C)(C)C)oc12 | Non-toxic | – | Toxic | Non-toxic | Dose-dependent effect | 4.99 | Toxic | – | – | – | – | – | –
CCCc1nc2c(N)nc3ccccc3c2s1 | – | – | – | Toxic | – | – | – | – | – | – | – | – | –
Oc1ccccc1-c1nc2cnccn2c1NCc1ccccc1 | – | – | – | – | – | – | – | inactive | inactive | inactive | inactive | inactive | inactive
Nc1nccn2c(NC3CCCCC3)c(-c3ccc(-c4ccccc4)cc3)nc12 | – | – | – | – | – | – | – | inactive | inactive | inactive | inactive | inactive | inactive
c1ccc(-c2nc3ccccn3c2NC2CCCCC2)cc1 | – | – | – | – | – | – | – | inactive | inactive | inactive | inactive | inactive | inactive
c1ccc(CNc2c(-c3ccccc3)nc3cnccn23)cc1 | – | – | – | – | – | – | – | inactive | inactive | inactive | inactive | inactive | inactive
CC(C)(C)Nc1c(-c2ccncc2)nc2ccccn12 | – | – | – | – | – | – | – | inactive | inactive | inactive | inactive | inactive | inactive
CCCCNc1oc2c(C)ncc(CO)c2c1Nc1ccccn1 | – | – | – | Non-toxic | Dose-dependent effect | 9.38 | – | – | – | – | – | – | –
CCCCc1nc2c(N)nccn2c1Nc1ccc(OC)cc1 | – | – | – | – | – | – | – | inactive | inactive | inactive | inactive | inactive | inactive
c1ccc(CNc2c(-c3ccccc3)nc3ccccn23)cc1 | – | – | – | – | – | – | – | inactive | inactive | inactive | inactive | inactive | inactive
c1ccc(-c2nc3cnccn3c2NC2CCCCC2)cc1 | – | – | – | – | – | – | – | inactive | inactive | inactive | inactive | inactive | inactive
CC(C)(C)Nc1c(-c2ccccc2O)nc2ccccn12 | – | – | – | – | – | – | – | inactive | inactive | inactive | inactive | inactive | inactive
CC(C)(C)Nc1c(-c2ccccc2O)nc2cnccn12 | – | – | – | – | – | – | – | inactive | inactive | inactive | inactive | inactive | inactive
Oc1ccccc1-c1nc2ccccn2c1NCc1ccccc1 | – | – | – | – | – | – | – | inactive | inactive | inactive | inactive | inactive | inactive
Cc1ncc(CO)c2c(Nc3ccccn3)c(NCc3ccccc3)oc12 | – | – | – | Non-toxic | Dose-dependent effect | 4.91 | – | – | – | – | – | – | –
c1cc(-c2nc3cnccn3c2NC2CCCCC2)ccn1 | – | – | – | – | – | – | – | inactive | inactive | inactive | inactive | inactive | inactive

Source: ChEMBL document CHEMBL2176888, “Structure-activity relationships in human Toll-like receptor 8-active 2,3-diamino-furo[2,3-c]pyridines” (J Med Chem, 2012)
